Measurements reported in US11000033B2, “Ketone or oxime compound, and herbicide” (NISSAN CHEMICAL CORPORATION, priority 2014, dated 2021).

How the values were obtained:
Type in all cases: in vivo
Alopecurus myosuroides = assay: Test Example 4: herbicidal effect by soil treatment (symbol J); details: application herbicide amount 320 g/ha
Summary of the method: (§1)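 Seeds were sown in sterilized diluvial soil, covered with about 1.5 cm of soil, and the soil surface was sprayed with a water-diluted emulsion of the compound at a predetermined rate. Plants grew in a greenhouse at 25° C. to 30° C.; effects were scored visually 3 weeks after application.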

Stellaria media = assay: Test Example 4: herbicidal effect by soil treatment (symbol P); details: application herbicide amount 320 g/ha
Summary of the method: as §1

Chenopodium album = assay: Test Example 5: herbicidal effect by foliage application, plastic box (symbol O); details: 320 g/ha, 3 weeks after application
Summary of the method: (§2)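 Post-emergence spray; diluvial soil (sterilized), ~1.5 cm seed cover; greenhouse 25–30° C; 14-day-old plants; water-diluted emulsion at predetermined dose; visual score at 3 wk post-treatment.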

Apera spica-venti = assay: Test Example 4: herbicidal effect by soil treatment (symbol L); details: application herbicide amount 320 g/ha
Summary of the method: as §1

soybean = assay: Test Example 5: effect on crop by foliage application, plastic box (symbol d); details: 320 g/ha, 3 weeks after application
Summary of the method: (§3)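 Soil: sterilized diluvial. Container: plastic box, 21 × 13 cm, 7 cm deep. Sowing: spot-like, ~1.5 cm cover. Growth: greenhouse, 25° C. to 30° C.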

Veronica persica = assay: Test Example 5: herbicidal effect by foliage application, plastic box (symbol R); details: 320 g/ha, 3 weeks after application
Summary of the method: as §2

[1] = system: Echinochloa crus-galli var. crus-galli; assay: Test Example 3: herbicidal effect by foliage application, Wagner pot (symbol H); details: application herbicide amount 320 g/ha
Summary of the method: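 Herbicidal activity was rated three weeks after a foliar spray of diluted emulsion concentrate, applied at a predetermined dose to plants grown for 14 days from seed in waterlogged alluvial soil within a 25–30 °C greenhouse.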

wheat = assay: Test Example 5: effect on crop by foliage application, plastic box (symbol e); details: 320 g/ha, 3 weeks after application
Summary of the method: as §3

[2] = system: Echinochloa crus-galli var. crus-galli; assay: Test Example 5: herbicidal effect by foliage application, plastic box (symbol H); details: 320 g/ha, 3 weeks after application
Summary of the method: as §2

corn = assay: Test Example 4: effect on crop by soil treatment (symbol c); details: application herbicide amount 320 g/ha
Summary of the method: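 Sterilized diluvial soil, spot sowing, ~1.5 cm soil cover; greenhouse 25–30° C.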

Lolium multiflorum Lam. = assay: Test Example 4: herbicidal effect by soil treatment (symbol K); details: application herbicide amount 320 g/ha
Summary of the method: as §1

Monochoria vaginalis = assay: Test Example 1: herbicidal activity, application before weed generation in submerged conditions (symbol C); details: application herbicide amount 320 g/ha
Summary of the method: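 Pre-emergence, paddy conditions: emulsifiable formulation diluted in water, dosed onto floodwater (4 cm depth) on sowing day. Alluvial soil; weeds sown mixed; rice transplanted at 2.5-leaf stage. Greenhouse 25–30 °C, 3 wk. Score 0–5 (5 = ≥90% kill, 0 = ≤5%).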

Setaria viridis = assay: Test Example 5: herbicidal effect by foliage application, plastic box (symbol G); details: 320 g/ha, 3 weeks after application
Summary of the method: as §2

[3] = system: directly sowed rice plant; assay: Test Example 3: effect on crop by foliage application, Wagner pot (symbol b); details: application herbicide amount 320 g/ha
Summary of the method: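 Wagner pot (1/10000 are), alluvial soil, submerged 0.1–0.5 cm; sown E. crus-galli var. crus-galli, L. chinensis, C. difformis, rice; greenhouse 25–30 °C.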

Amaranthus retroflexus = assay: Test Example 4: herbicidal effect by soil treatment (symbol N); details: application herbicide amount 320 g/ha
Summary of the method: as §1

Abutilon theophrasti = assay: Test Example 5: herbicidal effect by foliage application, plastic box (symbol M); details: 320 g/ha, 3 weeks after application
Summary of the method: as §2

| Structure (SMILES) | J (Alopecurus myosuroides) herbicidal effect grade (Alopecurus myosuroides) | P (Stellaria media) herbicidal effect grade (Stellaria media) | O: Chenopodium album, herbicidal effect grade (Chenopodium album) | L (Apera spica-venti) herbicidal effect grade (Apera spica-venti) | d: soybean, effect on crop grade (soybean) | R: Veronica persica, herbicidal effect grade (Veronica persica) | herbicidal effect on H (Echinochloa crus-galli var. crus-galli), grade 0-5 [1] | e: wheat, effect on crop grade (wheat) | H: Echinochloa crus-galli var. crus-galli, herbicidal effect grade [2] | c (corn) effect on crop grade (corn) | K (Lolium multiflorum Lam.) herbicidal effect grade (Lolium multiflorum Lam.) | Herbicidal effect grade, C: Monochoria vaginalis (Monochoria vaginalis) | G: Setaria viridis, herbicidal effect grade (Setaria viridis) | effect on crop b (directly sowed rice plant), grade 0-5 [3] | N (Amaranthus retroflexus) herbicidal effect grade (Amaranthus retroflexus) | M: Abutilon theophrasti, herbicidal effect grade (Abutilon theophrasti) |
| --- | --- | --- | --- | --- | --- | --- | --- | --- | --- | --- | --- | --- | --- | --- | --- | --- |
| CON=C(C)CC1CC(OC(=O)C(C)(C)Oc2ccccc2Cl)=C(c2c(C)cc(C)cc2C)C1=O (centres unmarked) [1-064] | 5 (Herbicidal ratio of 90% or more (almost completely withered)) | 0 (Herbicidal ratio of 5% or lower (almost no effect)) | 0 (Herbicidal ratio of 5% or lower (almost no effect)) | 5 (Herbicidal ratio of 90% or more (almost completely withered)) | 4 (Herbicidal ratio of 70% or higher and lower than 90%) | 3 (Herbicidal ratio of 40% or higher and lower than 70%) | 5 (Herbicidal ratio of 90% or more (almost completely withered)) | 5 (Herbicidal ratio of 90% or more (almost completely withered)) | 5 (Herbicidal ratio of 90% or more (almost completely withered)) | 5 (Herbicidal ratio of 90% or more (almost completely withered)) | 5 (Herbicidal ratio of 90% or more (almost completely withered)) | 1 (Herbicidal ratio of 5% or higher and lower than 20%) | 5 (Herbicidal ratio of 90% or more (almost completely withered)) | 5 (Herbicidal ratio of 90% or more (almost completely withered)) | 4 (Herbicidal ratio of 70% or higher and lower than 90%) | 4 (Herbicidal ratio of 70% or higher and lower than 90%) |
| CON=C(C)CC1CC(OC(=O)C(C)(C)Oc2cccc(Cl)c2)=C(c2c(C)cc(C)cc2C)C1=O (centres unmarked) [1-065] | 5 (Herbicidal ratio of 90% or more (almost completely withered)) | 0 (Herbicidal ratio of 5% or lower (almost no effect)) | 2 (Herbicidal ratio of 20% or higher and lower than 40%) | 5 (Herbicidal ratio of 90% or more (almost completely withered)) | 4 (Herbicidal ratio of 70% or higher and lower than 90%) | 3 (Herbicidal ratio of 40% or higher and lower than 70%) | 5 (Herbicidal ratio of 90% or more (almost completely withered)) | 5 (Herbicidal ratio of 90% or more (almost completely withered)) | 5 (Herbicidal ratio of 90% or more (almost completely withered)) | 5 (Herbicidal ratio of 90% or more (almost completely withered)) | 5 (Herbicidal ratio of 90% or more (almost completely withered)) | 0 (Herbicidal ratio of 5% or lower (almost no effect)) | 5 (Herbicidal ratio of 90% or more (almost completely withered)) | 5 (Herbicidal ratio of 90% or more (almost completely withered)) | 5 (Herbicidal ratio of 90% or more (almost completely withered)) | 4 (Herbicidal ratio of 70% or higher and lower than 90%) |
| CCC(C)C(CC1CC(O)=C(c2c(C)cc(C)cc2C)C1=O)=NOC (centres unmarked) [1-066] | 5 (Herbicidal ratio of 90% or more (almost completely withered)) | 0 (Herbicidal ratio of 5% or lower (almost no effect)) | 1 (Herbicidal ratio of 5% or higher and lower than 20%) | 5 (Herbicidal ratio of 90% or more (almost completely withered)) | 0 (Herbicidal ratio of 5% or lower (almost no effect)) | 3 (Herbicidal ratio of 40% or higher and lower than 70%) | 5 (Herbicidal ratio of 90% or more (almost completely withered)) | 0 (Herbicidal ratio of 5% or lower (almost no effect)) | 5 (Herbicidal ratio of 90% or more (almost completely withered)) | 4 (Herbicidal ratio of 70% or higher and lower than 90%) | 5 (Herbicidal ratio of 90% or more (almost completely withered)) | 0 (Herbicidal ratio of 5% or lower (almost no effect)) | 5 (Herbicidal ratio of 90% or more (almost completely withered)) | 5 (Herbicidal ratio of 90% or more (almost completely withered)) | 0 (Herbicidal ratio of 5% or lower (almost no effect)) | 1 (Herbicidal ratio of 5% or higher and lower than 20%) |
| CON=C(C)CC1CC(OC(=O)COc2ccccc2OC)=C(c2c(C)cc(C)cc2C)C1=O (centres unmarked) [1-067] | 5 (Herbicidal ratio of 90% or more (almost completely withered)) | 0 (Herbicidal ratio of 5% or lower (almost no effect)) | 2 (Herbicidal ratio of 20% or higher and lower than 40%) | 5 (Herbicidal ratio of 90% or more (almost completely withered)) | 4 (Herbicidal ratio of 70% or higher and lower than 90%) | 3 (Herbicidal ratio of 40% or higher and lower than 70%) | 5 (Herbicidal ratio of 90% or more (almost completely withered)) | 5 (Herbicidal ratio of 90% or more (almost completely withered)) | 5 (Herbicidal ratio of 90% or more (almost completely withered)) | 3 (Herbicidal ratio of 40% or higher and lower than 70%) | 5 (Herbicidal ratio of 90% or more (almost completely withered)) | 1 (Herbicidal ratio of 5% or higher and lower than 20%) | 5 (Herbicidal ratio of 90% or more (almost completely withered)) | 5 (Herbicidal ratio of 90% or more (almost completely withered)) | 5 (Herbicidal ratio of 90% or more (almost completely withered)) | 5 (Herbicidal ratio of 90% or more (almost completely withered)) |
| CON=C(C)CC1CC(OC(=O)COc2cccc(OC)c2)=C(c2c(C)cc(C)cc2C)C1=O (centres unmarked) [1-068] | 5 (Herbicidal ratio of 90% or more (almost completely withered)) | 0 (Herbicidal ratio of 5% or lower (almost no effect)) | 1 (Herbicidal ratio of 5% or higher and lower than 20%) | 5 (Herbicidal ratio of 90% or more (almost completely withered)) | 4 (Herbicidal ratio of 70% or higher and lower than 90%) | 3 (Herbicidal ratio of 40% or higher and lower than 70%) | 5 (Herbicidal ratio of 90% or more (almost completely withered)) | 5 (Herbicidal ratio of 90% or more (almost completely withered)) | 5 (Herbicidal ratio of 90% or more (almost completely withered)) | 5 (Herbicidal ratio of 90% or more (almost completely withered)) | 5 (Herbicidal ratio of 90% or more (almost completely withered)) | 3 (Herbicidal ratio of 40% or higher and lower than 70%) | 5 (Herbicidal ratio of 90% or more (almost completely withered)) | 5 (Herbicidal ratio of 90% or more (almost completely withered)) | 4 (Herbicidal ratio of 70% or higher and lower than 90%) | 5 (Herbicidal ratio of 90% or more (almost completely withered)) |
